Literature values in PMC8308777, “Small Molecule–Peptide Conjugates as Dimerization Inhibitors of Leishmania infantum Trypanothione Disulfide Reductase” (Pharmaceuticals, 2021).

Molecular target: T1, Leishmania infantum trypanothione disulfide reductase (LiTryR) (Leishmania infantum, UniProt A4HSF7)
T1 construct: HIS; made in house; host or cells: E. coli BL21 (DE3) Rossetta 2
Conditions: earlier work of the authors; cited from earlier work
Description: Considering that the biologically functional form of TryR is a homodimer, in 2013, we devised an alternative inhibition strategy aimed at disrupting the protein–protein interactions at the homodimer interface of Leishmania infantum TryR (LiTryR). Thus, by combining molecular modeling and site-directed mutagenesis studies, we identified and validated, for the first time, Glu436 (located at an interfacial α-helix spanning from Pro435 to Met447) as a “hotspot” for LiTryR homodimer stabilization. As a “proof of concept”, we designed and tested a small library of linear peptides [[22] ...

T1 sequence (A4HSF7 entry or part of it): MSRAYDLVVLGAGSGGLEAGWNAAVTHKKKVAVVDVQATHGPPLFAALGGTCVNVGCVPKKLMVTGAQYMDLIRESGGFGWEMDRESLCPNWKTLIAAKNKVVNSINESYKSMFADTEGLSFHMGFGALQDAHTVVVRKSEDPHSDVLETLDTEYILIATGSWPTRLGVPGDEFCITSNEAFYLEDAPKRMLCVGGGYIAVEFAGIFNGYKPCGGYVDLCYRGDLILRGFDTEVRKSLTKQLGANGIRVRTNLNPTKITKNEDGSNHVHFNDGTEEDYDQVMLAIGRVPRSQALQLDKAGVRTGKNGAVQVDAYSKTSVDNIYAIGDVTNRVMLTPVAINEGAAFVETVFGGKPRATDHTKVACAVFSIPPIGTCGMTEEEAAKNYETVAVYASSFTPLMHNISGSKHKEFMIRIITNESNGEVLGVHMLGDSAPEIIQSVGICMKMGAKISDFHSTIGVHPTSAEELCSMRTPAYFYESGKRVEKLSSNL

Substance: Ac-PKIIQSVGISMKM-NH2 [TRL35, Nα-acetylated 13-mer peptide, earlier LiTryR dimerization disruptor]
- inhibition of the oxidoreductase activity of LiTryR: submicromolar range
